In the oligonucleotide strings, read from the 5' end, every base follows the letter of its sugar. An asterisk marks phosphorothioate; unmarked linkages are phosphodiester. Other units and linkages are bracketed, terminal groups are in braces. A string of capitals states the bases alone. e = 2'-O-(2-methoxyethyl) (MOE); [5mC] = 5-methylcytosine; d = 2'-deoxy (DNA)
System: T47D cells
Assay: Caspase-3 activity assay (apoptosis) in T47D cells
Details: for Fold Increase over UTC (caspase-3 activity, apoptosis) / Fold Increase over UTC (caspase activity): T47D cells, 48 hours; for Fold Increase over UTC (caspase-3 activity, apoptosis): 200 nM oligomeric compound; for Fold Increase over UTC (caspase activity) / apoptosis in T47D cells: 200 nM; for Fold Increase over UTC (caspase activity): relative to untreated control; for apoptosis in T47D cells: caspase assay, conclusion from Tables 9-12

Row | Substance | apoptosis in T47D cells | also measured
1 | 328645 (eT*eG*e[5mC]*eT*e[5mC]*dA*dG*d[5mC]*d[5mC]*dA*dG*d[5mC]*d[5mC]*d[5mC]*d[5mC]*eA*eT*eT*e[5mC]*eT) [compound 328645] | – | Fold Increase over UTC (caspase-3 activity, apoptosis) (experiment of Table 11): 2.2 fold
2 | 328646 (eG*e[5mC]*eT*eT*eT*dT*dA*dG*dA*dA*d[5mC]*d[5mC]*dA*d[5mC]*dT*eG*e[5mC]*e[5mC]*eT*e[5mC]; antisense) [compound 328646] | – | Fold Increase over UTC (caspase-3 activity, apoptosis) (experiment of Table 10): 1.1 fold
3 | 328648 (eA*e[5mC]*eT*eG*eA*dT*dT*d[5mC]*dA*dA*dG*dA*dG*d[5mC]*dT*eT*eT*eG*eT*eA; antisense) [compound 328648] | – | Fold Increase over UTC (caspase activity): 1.1
4 | 328650 (eA*eA*eT*e[5mC]*e[5mC]*dA*dT*dT*dG*dA*dA*dG*dA*dG*dG*e[5mC]*eG*eA*eT*eT; antisense) [compound 328650] | – | Fold Increase over UTC (caspase-3 activity, apoptosis) (experiment of Table 12): 0.8 fold
5 | 328652 (eG*eG*e[5mC]*e[5mC]*eT*dA*dA*dT*dA*dT*d[5mC]*d[5mC]*d[5mC]*dT*dA*e[5mC]*e[5mC]*e[5mC]*e[5mC]*eA; antisense) [compound 328652] | – | Fold Increase over UTC (caspase-3 activity, apoptosis) (experiment of Table 10): 1.2 fold
6 | 328653 (eG*eT*eG*eT*eT*d[5mC]*dA*dG*dA*dA*dA*d[5mC]*d[5mC]*d[5mC]*dA*eG*eG*e[5mC]*e[5mC]*e[5mC]; antisense) [compound 328653] | – | Fold Increase over UTC (caspase-3 activity, apoptosis) (experiment of Table 11): 1.1 fold
7 | 328654 (eT*e[5mC]*e[5mC]*eA*eG*dG*dA*dT*dG*d[5mC]*dA*dA*dA*dA*dG*e[5mC]*eA*e[5mC]*eG*eA; antisense) [compound 328654] | – | Fold Increase over UTC (caspase-3 activity, apoptosis) (experiment of Table 11): 1.0 fold
8 | 328655 (eT*eA*e[5mC]*eA*eA*d[5mC]*dG*dG*d[5mC]*dA*dT*dT*dG*dT*d[5mC]*e[5mC]*eT*eG*eA*eA; antisense) [compound 328655] | – | Fold Increase over UTC (caspase-3 activity, apoptosis) (experiment of Table 11): 0.7 fold
9 | 328656 (eT*eT*eT*e[5mC]*eA*dG*dG*d[5mC]*dT*d[5mC]*dA*d[5mC]*d[5mC]*dT*d[5mC]*e[5mC]*e[5mC]*e[5mC]*eA*eG; antisense) [compound 328656] | – | Fold Increase over UTC (caspase activity): 1.1
10 | 328657 (eA*eA*eA*eA*eA*dT*dA*dA*dT*d[5mC]*dT*d[5mC]*dT*dG*d[5mC]*eA*e[5mC]*eA*eG*eG; antisense) [compound 328657] | – | Fold Increase over UTC (caspase-3 activity, apoptosis) (experiment of Table 10): 0.8 fold
11 | 328658 (eA*eG*eA*eA*eT*dG*dA*dG*dT*dT*dG*dA*d[5mC]*dA*dT*eA*e[5mC]*e[5mC]*eA*eA; antisense) [compound 328658] | – | Fold Increase over UTC (caspase-3 activity, apoptosis) (experiment of Table 12): 1.2 fold
12 | 328672 (eA*eA*eG*eG*e[5mC]*dT*dT*dT*dT*dT*dG*d[5mC]*dT*d[5mC]*dA*eA*eG*eG*eG*e[5mC]; antisense) [compound 328672] | – | Fold Increase over UTC (caspase-3 activity, apoptosis) (experiment of Table 10): 0.9 fold
13 | 328689 (eT*eA*e[5mC]*eA*eA*dT*dT*dT*dG*dG*dG*dA*dG*dT*d[5mC]*e[5mC]*eT*eG*eA*eA; antisense) [compound 328689] | – | Fold Increase over UTC (caspase-3 activity, apoptosis) (experiment of Table 11): 0.8 fold
14 | 328690 (eG*e[5mC]*e[5mC]*eT*e[5mC]*d[5mC]*dT*dT*d[5mC]*dA*dT*dA*dT*dA*dT*eT*e[5mC]*eT*e[5mC]*eA; antisense) [compound 328690] | – | Fold Increase over UTC (caspase-3 activity, apoptosis) (experiment of Table 12): 0.8 fold
15 | 328692 (eT*eT*eG*eT*eA*dT*dG*dG*dA*d[5mC]*dA*dT*dT*dT*dA*eA*eA*eT*e[5mC]*eA; antisense) [compound 328692] | – | Fold Increase over UTC (caspase activity): 1.2
16 | 328693 (eT*eT*eT*eG*eA*dT*dT*dT*dT*dA*dA*dT*dT*d[5mC]*d[5mC]*eA*eA*eA*e[5mC]*eT; antisense) [compound 328693] | – | Fold Increase over UTC (caspase-3 activity, apoptosis) (experiment of Table 12): 1.0 fold
17 | 328694 (e[5mC]*eA*eA*eA*e[5mC]*dG*dG*dT*dA*dA*dG*dA*dT*dT*dT*eG*e[5mC]*eA*eG*eA; antisense) [compound 328694] | – | Fold Increase over UTC (caspase-3 activity, apoptosis) (experiment of Table 10): 0.8 fold
18 | 328695 (eG*eG*eA*eT*eT*dT*dA*dA*dA*d[5mC]*dG*dG*dT*dA*dA*eA*e[5mC]*eA*eT*e[5mC]; antisense) [compound 328695] | – | Fold Increase over UTC (caspase-3 activity, apoptosis) (experiment of Table 11): 0.8 fold
19 | 328696 (e[5mC]*eT*e[5mC]*eT*eA*dG*d[5mC]*dT*d[5mC]*d[5mC]*d[5mC]*dT*d[5mC]*dA*d[5mC]*e[5mC]*eA*eG*eT*eG; antisense) [compound 328696] | – | Fold Increase over UTC (caspase-3 activity, apoptosis) (experiment of Table 10): 1.5 fold
20 | 328700 (eA*eG*e[5mC]*e[5mC]*eA*dG*dT*dG*dT*dG*dT*dA*dA*dA*dA*eT*eG*eA*eG*eA; antisense) [compound 328700] | – | Fold Increase over UTC (caspase-3 activity, apoptosis) (experiment of Table 10): 0.8 fold

Row | Substance | apoptosis in T47D cells | also measured
21 | AAAAATAATCTCTGCACAGG (antisense; same sequence listed as MOE 5-10-5 gapmer and as uniform MOE, further chemistry not given here) [ISIS 328657] | prevent or have a protective effect from apoptosis | –
22 | AATCCATTGAAGAGGCGATT (antisense; same sequence listed as MOE 5-10-5 gapmer and as uniform MOE, further chemistry not given here) [ISIS 328650] | prevent or have a protective effect from apoptosis | –
23 | ACTGATTCAAGAGCTTTGTA (antisense; same sequence listed as MOE 5-10-5 gapmer and as uniform MOE, further chemistry not given here) [ISIS 328648] | induce apoptosis | –
24 | AGAATGAGTTGACATACCAA (antisense; same sequence listed as MOE 5-10-5 gapmer and as uniform MOE, further chemistry not given here) [ISIS 328658] | induce apoptosis | –
25 | AGCCAGTGTGTAAAATGAGA (2'-MOE gapmer, phosphorothioate, further chemistry not given here) [ISIS 328700] | prevent or have a protective effect from apoptosis | –
26 | CAAACGGTAAGATTTGCAGA (antisense; same sequence listed as MOE 5-10-5 gapmer and as uniform MOE, further chemistry not given here) [ISIS 328694] | prevent or have a protective effect from apoptosis | –
27 | CCGAGGGTCTAACCCAGCCC (antisense; same sequence listed as MOE 5-10-5 gapmer and as uniform MOE, further chemistry not given here) [ISIS 328638] | prevent or have a protective effect from apoptosis | –
28 | CTCTAGCTCCCTCACCAGTG (antisense; same sequence listed as MOE 5-10-5 gapmer and as uniform MOE, further chemistry not given here) [ISIS 328696] | induce apoptosis | –
29 | GACAAGGTGGGAGCGAGTGG (antisense; same sequence listed as MOE 5-10-5 gapmer and as uniform MOE, further chemistry not given here) [ISIS 328644] | prevent or have a protective effect from apoptosis | –
30 | GACTACTGTTGAGAGGAACA (antisense; same sequence listed as MOE 5-10-5 gapmer and as uniform MOE, further chemistry not given here) [ISIS 328639] | prevent or have a protective effect from apoptosis | –
31 | GCCTCCTTCATATATTCTCA (antisense; same sequence listed as MOE 5-10-5 gapmer and as uniform MOE, further chemistry not given here) [ISIS 328690] | prevent or have a protective effect from apoptosis | –
32 | GCTTTTAGAACCACTGCCTC (antisense; same sequence listed as MOE 5-10-5 gapmer and as uniform MOE, further chemistry not given here) [ISIS 328646] | induce apoptosis | –
33 | GGATTTAAACGGTAAACATC (antisense; same sequence listed as MOE 5-10-5 gapmer and as uniform MOE, further chemistry not given here) [ISIS 328695] | prevent or have a protective effect from apoptosis | –
34 | GGCCTAATATCCCTACCCCA (antisense; same sequence listed as MOE 5-10-5 gapmer and as uniform MOE, further chemistry not given here) [ISIS 328652] | induce apoptosis | –
35 | GTGTTCAGAAACCCAGGCCC (antisense; same sequence listed as MOE 5-10-5 gapmer and as uniform MOE, further chemistry not given here) [ISIS 328653] | induce apoptosis | –
36 | ISIS 328371: 5-10-5 2′-MOE gapmer PS; targets mir-1d pri-miRNA (eT*e[5mC]*e[5mC]*eA*eT*dA*dG*d[5mC]*dT*dT*dA*dG*d[5mC]*dA*dG*eG*eT*e[5mC]*e[5mC]*eA) | induce apoptosis | –
37 | ISIS 328381: 5-10-5 2′-MOE gapmer PS; targets mir-214 pri-miRNA (eA*e[5mC]*eA*eG*eG*dT*dG*dA*dG*d[5mC]*dG*dG*dA*dT*dG*eT*eT*e[5mC]*eT*eG) | induce apoptosis | –
38 | ISIS 328391: 5-10-5 2′-MOE gapmer PS; targets hypothetical miRNA-044 pri-miRNA (eA*eT*eG*eG*eT*dA*dA*dT*dT*dT*d[5mC]*dA*dT*dT*dT*e[5mC]*eA*eG*eG*e[5mC]) | prevent or have a protective effect from apoptosis | –
39 | ISIS 328397: 5-10-5 2′-MOE gapmer PS; targets mir-103-1 pri-miRNA (eT*eT*eG*eA*eT*d[5mC]*d[5mC]*dA*dT*dA*dT*dG*d[5mC]*dA*dA*e[5mC]*eA*eA*eG*eG) | induce apoptosis | –
40 | SEQ ID NO 483: gapmer of Tables 9-12 having this SEQ ID NO (antisense eA*eG*e[5mC]*eT*eT*dT*dA*dG*d[5mC]*dT*dG*dG*dG*dT*d[5mC]*eA*eG*eG*eA*e[5mC]) | induce apoptosis | –

Reference: US8178506B2, “Oligomeric compounds and compositions for use in modulation of small non-coding RNAs” (Regulus Therapeutics Inc., priority 2003, dated 2012)
